What was measured:
bedstraw = experiment: Test B pre/postemergence bedstraw; format: in vivo, Galium aparine
How it was run: (§1)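 Herbicidal effect was estimated by eye on a ten-point control scale after plants spent twelve to sixteen days in a greenhouse following soil or foliar treatment. Foliar sprays targeted plants at one to four leaves; all doses were formulated in a non-phytotoxic solvent with surfactant.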

blackgrass = experiment: Test B pre/postemergence blackgrass; format: in vivo, Alopecurus myosuroides
How it was run: as §1

surinam grass = experiment: Test B pre/postemergence surinam grass; format: in vivo, Brachiaria decumbens
How it was run: as §1

cocklebur = experiment: Test B pre/postemergence cocklebur; format: in vivo, Xanthium strumarium
How it was run: as §1

corn = experiment: Test B pre/postemergence corn; format: in vivo, Zea mays
How it was run: as §1

crabgrass = experiment: Test B pre/postemergence crabgrass; format: in vivo, Digitaria sanguinalis
How it was run: as §1

morningglory = experiment: Test B pre/postemergence morningglory; format: in vivo, Ipomoea hederacea
How it was run: as §1

pigweed = experiment: Test B pre/postemergence pigweed; format: in vivo, Amaranthus retroflexus
How it was run: as §1

rape = experiment: Test B pre/postemergence rape; format: in vivo, Brassica napus
How it was run: as §1

sugar beet = experiment: Test B pre/postemergence sugar beet; format: in vivo, Beta vulgaris
How it was run: as §1

velvetleaf = experiment: Test B pre/postemergence velvetleaf; format: in vivo, Abutilon theophrasti
How it was run: as §1

wheat = experiment: Test B pre/postemergence wheat; format: in vivo, Triticum aestivum
How it was run: as §1

wild oat = experiment: Test B pre/postemergence wild oat; format: in vivo, Avena fatua
How it was run: as §1

purple nutsedge = experiment: Test B pre/postemergence purple nutsedge; format: in vivo, Cyperus rotundus
How it was run: as §1

smallflower flatsedge = experiment: Test B flood test smallflower flatsedge; format: in vivo, Cyperus difformis
How it was run: (§2)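 Plants were grown to the 2-leaf stage before treatment with test chemical, then held in a greenhouse for twelve to sixteen days. Injury was visually rated against untreated controls on a 0–10 scale, where 0 is no effect and 10 is complete control.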

duck salad = experiment: Test B flood test duck salad; format: in vivo, Heteranthera limosa
How it was run: as §2

[1] = Postemergence, Rate 500 g/ha, scale of 0 to 10 where 0 is no effect and 10 is complete control
[2] = Postemergence, Rate 1000 g/ha, scale 0 to 10 (0 no effect, 10 complete control)
[3] = Preemergence, Rate 500 g/ha, scale of 0 to 10 where 0 is no effect and 10 is complete control
[4] = Rate 1000 g/ha, Preemergence, scale 0 to 10 (0 no effect, 10 complete control)
[5] = Postemergence, Rate 125 g/ha, scale of 0 to 10 where 0 is no effect and 10 is complete control
[6] = Postemergence, Rate 250 g/ha, scale of 0 to 10, 0 is no effect, 10 is complete control
[7] = Preemergence, Rate 125 g/ha, scale of 0 to 10 where 0 is no effect and 10 is complete control
[8] = Pre-emergence, Rate 1000 g/ha, scale 0 to 10 (0 no effect, 10 complete control)
[9] = Rate 125 g/ha, under heading Pre-emergence, flood test species, visual evaluation after twelve to sixteen days
[10] = Rate 250 g/ha, Pre-emergence (flood test species), scale 0 to 10, 0 is no effect, 10 is complete control
[11] = Rate 500 g/ha, Pre-emergence section of Table B, 0 to 10 scale (0 no effect, 10 complete control)

C=CCn1c(=O)on(C(=O)N(c2c(C)cccc2C)C(C)COC)c1=O (centres unmarked) [Compound 600]
Plant response rating, Bedstraw (bedstraw; [1]): 0 | Bedstraw plant response rating (bedstraw; [2]): 0 | Bedstraw plant response rating (0 to 10 scale) (bedstraw; Preemergence, Rate 250 g/ha): 0 | Bedstraw plant response rating (bedstraw; [3]): 0 | Plant response rating, Bedstraw (bedstraw; [4]): 0 | Plant response rating, Blackgrass (blackgrass; [5]): 0 | Blackgrass plant response rating (blackgrass; [6]): 0 | Plant response rating, Blackgrass (blackgrass; [1]): 0 | Blackgrass plant response rating (blackgrass; [2]): 0 | Blackgrass plant response rating (blackgrass; [7]): 0 | Blackgrass plant response rating (0 to 10 scale) (blackgrass; Preemergence, Rate 250 g/ha): 0 | Blackgrass plant response rating (blackgrass; [3]): 0 | Plant response rating, Blackgrass (blackgrass; [4]): 0 | Plant response rating, B. signalgrass (surinam grass; [5]): 0 | B. signalgrass plant response rating (surinam grass; [6]): 0 | Plant response rating, B. signalgrass (surinam grass; [1]): 0 | B. signalgrass plant response rating (surinam grass; [2]): 0 | B. signalgrass plant response rating (surinam grass; [7]): 0 | B. signalgrass plant response rating (0 to 10 scale, 0 is no effect, 10 is complete control) (surinam grass; Preemergence, Rate 250 g/ha): 0 | B. signalgrass plant response rating (surinam grass; [3]): 0 | Plant response rating, B. signalgrass (surinam grass; [4]): 0 | Plant response rating, Cocklebur (cocklebur; [5]): 0 | Cocklebur plant response rating (cocklebur; [6]): 0 | Plant response rating, Cocklebur (cocklebur; [1]): 0 | Cocklebur plant response rating (cocklebur; [2]): 0 | Cocklebur plant response rating (cocklebur; [7]): 0 | Cocklebur plant response rating (0 to 10 scale) (cocklebur; Preemergence, Rate 250 g/ha): 0 | Plant response rating, Cocklebur (cocklebur; [3]): 0 | Plant response rating, Cocklebur (cocklebur; [4]): 0 | Plant response rating, Corn (corn; [5]): 0 | Corn plant response rating (corn; [6]): 0 | Plant response rating, Corn (corn; [1]): 0 | Corn plant response rating (corn; [2]): 0 | Corn plant response rating (corn; [7]): 0 | Corn plant response rating (0 to 10 scale) (corn; Preemergence, Rate 250 g/ha): 0 | Plant response rating, Corn (corn; [3]): 0 | Plant response rating, Corn (corn; [4]): 0 | Plant response rating, Crabgrass (crabgrass; [5]): 1 | Plant response rating, Crabgrass (crabgrass; [1]): 3 | Crabgrass plant response rating (crabgrass; [2]): 3 | Crabgrass plant response rating (crabgrass; [7]): 0 | Plant response rating, Crabgrass (crabgrass; [3]): 0 | Plant response rating, Crabgrass (crabgrass; [4]): 0 | Plant response rating, Morningglory (morningglory; [5]): 0 | Morningglory plant response rating (morningglory; [6]): 0 | Plant response rating, Morningglory (morningglory; [1]): 0 | Morningglory plant response rating (morningglory; [2]): 0 | Morningglory plant response rating (morningglory; [7]): 0 | Plant response rating, Morningglory (morningglory; [3]): 0 | Plant response rating, Morningglory (morningglory; [4]): 0 | Plant response rating, Redroot pigweed (pigweed; [5]): 0 | Redroot pigweed plant response rating (pigweed; [6]): 0 | Plant response rating, Redroot pigweed (pigweed; [1]): 0 | Redroot pigweed plant response rating (pigweed; [2]): 0 | Redroot pigweed plant response rating (pigweed; [7]): 0 | Plant response rating, Redroot pigweed (pigweed; [3]): 0 | Plant response rating, Redroot pigweed (pigweed; [4]): 0 | Plant response rating, Rape (rape; [5]): 0 | Rape plant response rating (rape; [6]): 0 | Plant response rating, Rape (rape; [1]): 0 | Rape plant response rating (rape; [2]): 0 | Rape plant response rating (rape; [7]): 0 | Plant response rating, Rape (rape; [3]): 0 | Plant response rating, Rape (rape; [4]): 0 | Plant response rating, Sugarbeets (sugar beet; [5]): 0 | Sugarbeets plant response rating (sugar beet; [6]): 0 | Plant response rating, Sugarbeets (sugar beet; [1]): 0 | Sugarbeets plant response rating (sugar beet; [2]): 0 | Sugarbeets plant response rating (sugar beet; [7]): 0 | Plant response rating, Sugarbeets (sugar beet; [3]): 0 | Plant response rating, Sugarbeets (sugar beet; [4]): 0 | Plant response rating, Velvetleaf (velvetleaf; [5]): 0 | Velvetleaf plant response rating (velvetleaf; [6]): 0 | Plant response rating, Velvetleaf (velvetleaf; [1]): 0 | Velvetleaf plant response rating (velvetleaf; [2]): 0 | Velvetleaf plant response rating (velvetleaf; [7]): 0 | Plant response rating, Velvetleaf (velvetleaf; [3]): 0 | Plant response rating, Velvetleaf (velvetleaf; [4]): 0 | Plant response rating, Wheat (wheat; [5]): 0 | Wheat plant response rating (wheat; [6]): 0 | Plant response rating, Wheat (wheat; [1]): 0 | Wheat plant response rating (wheat; [2]): 0 | Wheat plant response rating (wheat; [7]): 0 | Plant response rating, Wheat (wheat; [3]): 0 | Plant response rating, Wheat (wheat; [4]): 0 | Plant response rating, Wild oats (wild oat; [5]): 0 | Wild oats plant response rating (wild oat; [6]): 0 | Plant response rating, Wild oats (wild oat; [1]): 0 | Wild oats plant response rating (wild oat; [2]): 0 | Wild oats plant response rating (wild oat; [7]): 0 | Plant response rating, Wild oats (wild oat; [3]): 0 | Plant response rating, Wild oats (wild oat; [4]): 0 | Plant response rating, Nutsedge (purple nutsedge; [5]): 0 | Nutsedge plant response rating (purple nutsedge; [6]): 0 | Plant response rating, Nutsedge (purple nutsedge; [1]): 0 | Nutsedge plant response rating (purple nutsedge; [2]): 0 | Nutsedge plant response rating (purple nutsedge; [7]): 0 | Plant response rating, Nutsedge (purple nutsedge; [3]): 0 | Plant response rating, Nutsedge (purple nutsedge; [4]): 0 | S. Flatsedge plant response rating (smallflower flatsedge; [8]): 0 | S. Flatsedge plant response rating (0 to 10 scale, 0 is no effect, 10 is complete control) (smallflower flatsedge; [9]): 0 | S. Flatsedge plant response rating (smallflower flatsedge; [10]): 0 | S. Flatsedge plant response rating (smallflower flatsedge; [11]): 0 | Ducksalad plant response rating (duck salad; [8]): 0 | Ducksalad plant response rating (0 to 10 scale, 0 is no effect, 10 is complete control) (duck salad; [9]): 0 | Ducksalad plant response rating (duck salad; [10]): 0 | Ducksalad plant response rating (duck salad; [11]): 0

From patent US6737383B1, “Herbicidal oxadiazolidines” (priority 1999, dated 2004)
